Experiments:
[1] = test system: D27; assay: qRT-PCR of D27 gene expression in rice roots after zaxinone treatment; format: in vivo, rice (Oryza sativa Nipponbare); conditions: −Pi, 6 h
Protocol: (§1) For the analysis of SL transcript levels in the zas mutant, one week-old seedlings were grown hydroponically in half-strength modified Hoagland nutrient solution with K2HPO4·2H2O (+Pi) and without K2HPO4·2H2O (−Pi) for 7 days. Seedlings were further treated with zaxinone for 6 h and tissues were collected.
(§2) Total RNA was extracted from the roots and shoots using a Qiagen Plant RNeasy Kit according to the manufacturer's instruction. cDNA was synthesized from 1 μg of total RNA using iScript cDNA Synthesis Kit (BIO-RAD Laboratories, Inc, 2000 Alfred Nobel Drive, Hercules, CA, Cat. No #170-8890) according to instructions in the user manual. For mycorrhizal samples, single-strand cDNA was synthesized from 1 μg of total RNA using Super-Script II (Invitrogen) according to instructions in the user manual. Primers used for real-time quantitative RT-PCR (qRT-PCR) analysis are listed below in Table 3. qRT-PCR was performed using SYBR Green Master Mix (Applied Biosystems; www.lifetechnologies.com) in a StepOnePlus (Life Technologies, Carlsbad, CA, USA). For mycorrhizal samples, qRT-PCR was performed using a Rotor-Gene Q 5plex HRM Platform (Qiagen). The 2-ΔCt method was used to calculate the relative gene expression levels and rice Ubiquitin (OsUBQ or OsRubQ1) gene was used as the internal control to normalize target gene expression.
(§3) 14-day-old rice seedlings were transferred to new hydroponic pots containing fresh media with or without chemicals for 6 hours. SL biosynthetic (D27, D10, D17 and MAX1-Os900) gene expression were determined under −Pi conditions (phosphate deficient) with zaxinone (2.5 and 5 μM) treatment of both Nipponbare wild-type (WT) rice roots and zas mutant rice roots. The expression levels (1301) were detected by quantitative RT-PCR. Ubiquitin was used as a reference gene. Mock treatment (control) treatment consisted of 0.1% acetone. Bars (1302) show comparisons between the treatments and represent mean±SD (n=3). Decrease in SLs levels in the plants treated with zaxinone ranged from approximately 40% to 70%.

[2] = test system: D17; assay: qRT-PCR of D17 gene expression in rice roots after zaxinone treatment; format: in vivo, rice (Oryza sativa Nipponbare); conditions: −Pi, 6 h
Protocol: as §1, §2, §3

[3] = test system: MAX1-Os900; assay: qRT-PCR of MAX1-Os900 gene expression in rice roots after zaxinone treatment; format: in vivo, rice (Oryza sativa Nipponbare); conditions: −Pi, 6 h
Protocol: as §1, §2, §3

[4] = test system: wild-type and zas mutant rice seedlings; assay: Rescue of zas mutant root phenotype, hydroponically grown rice seedlings; format: in vivo, Oryza sativa Nipponbare; conditions: hydroponic, 2.5 μM zaxinone
Protocol: For rescue of zas mutant phenotype with zaxinone, one week-old seedlings were grown hydroponically in Hoagland nutrient solution containing K2HPO4·2H2O (+Pi) for 3 weeks with 2.5 μM zaxinone treatment or Mock treatment (0.1% acetone). The solution was changed every other day, adding the chemical at each renewal. Plants grown without zaxinone served as the controls and phenotypic data were recorded.
Phenotypic characteristics of hydroponically grown Nipponbare wild-type and zas mutant rice plants were examined to determine the effect of zaxinone treatment on plant growth. Data are means±SD [(FIG. 16A), n=12; (FIG. 16B), n=6; (FIG. 16C), n=4; (FIG. 16D), n=8; Con=Control, Zax=Zaxinone]. Different letters denote significant difference following a One-way ANOVA test (P<0.05).

[5] = test system: Shiokari wild-type and ccd mutant seedlings (d17, d10, d3); assay: Zaxinone effect on root phenotypes of Shiokari wild-type and ccd mutant seedlings; format: in vivo, rice (Shiokari)
Protocol: For investigation of the zaxinone effect on CCD mutant phenotypes, one week-old seedlings were grown hydroponically in Hoagland nutrient solution containing K2HPO4·2H2O (+Pi) for 3 weeks with 2.5 μM zaxinone treatment or Mock treatment (0.1% acetone). The solution was changed every other day, adding the chemical at each renewal. Plants grown without zaxinone served as the controls and phenotypic data were recorded.
The effect of zaxinone (2.5 μM) on root phenotypes of hydroponically grown Shiokari wild-type and ccd mutant seedlings was also studied. FIG. 16D is a visual determination of root growth with (2.5 μM) zaxinone added to the growth medium and without zaxinone (control) for Shiokari wild-type seedlings and ccd mutant seedlings, d17, d10 and d3. The roots of seedlings grown with zaxinone were visually determined to be increased over the controls, with the wild-type (WT) showing the greatest increase. The visual results are confirmed by the root length and root biomass measurements seen in graphs FIG. 16D.

[6] = test system: mycorrhizal wild-type and zas mutant rice plants; assay: Zaxinone effect on mycorrhizal rice plants (phenotype and AM colonization); format: in vivo, Oryza sativa Nipponbare
Protocol: Seeds of WT (cv. Nipponbare) and zas mutant were germinated in pots containing sand and incubated for 10 days in a growth chamber under conditions having a 14 h light (23° C.)/10 h dark (21° C.) cycle. Plants used for mycorrhization were inoculated with Funelliformis mosseae (BEG 12, MycAgroLab, France) or Rhizophagus irregularis (INOQ GmbH, Germany) Both fungi inocula (25%) were mixed with sterile quartz sand and used for colonization. Plants were watered with a modified Long-Ashton (LA) solution containing 3.2 μM Na2HPO4·12H2O and were grown in a growth chamber under the 14 h light (24° C.)/10 h dark (20° C.) regime.
Wild-type and zas mycorrhizal plants were grown in sand and watered twice a week with different concentrations of zaxinone (5 μM; 0.5 μM; 50 nM) directly applied in the Long Ashton nutrient solution. Data were collected 35 days post germination (dpg).
Wild-type and zas mycorrhizal roots were stained with 0.1% cotton blue in lactic acid and the estimation of mycorrhizal parameters was performed using MYCOCALC. For the molecular analyses, roots were immediately frozen in liquid nitrogen and stored at −80° C.
Mycorrizhal plants were grown in sand and watered with Long Ashton solution (3.2 μM Pi) for five weeks post AM fungus inoculation. FIGS. 23A-23F show the effect of twice a week treatment with zaxinone (5 μM) for wild-type (WT) and zas mutant (zas) plants. Data are means±SE, n=9 plants. Different letters above the bars indicate significant differences according to Tukey's test (P<0.05).

[7] = WT rice roots, 2.5 μM zaxinone, WT mock approx. 1.0
[8] = WT rice roots, 5.0 μM zaxinone, WT mock approx. 1.0
[9] = zas mutant rice roots, 2.5 μM zaxinone
[10] = zas mutant rice roots, 5.0 μM zaxinone

`CC(=O)/C=C/C=C(C)/C=C/C1=C(C)C[C@@H](O)CC1(C)C` [zaxinone, 3-OH-β-apo-13-carotenone] was tested. Which “decrease of D27 relative expression vs mock” value ([1]; WT rice roots, 2.5 μM zaxinone) did it give?
Its value is “approximately 50%”.

What about the D27 relative expression [1, 7] of the same molecule?
Its D27 relative expression is “approximately 0.5”.

What about the “decrease of D27 relative expression vs mock” value ([1]; WT rice roots, 5.0 μM zaxinone) of the same molecule?
Its value is ~75%.

And the D27 relative expression [1, 8]?
The D27 relative expression was “approximately 0.25”.

And the “decrease of D27 relative expression vs mock” value [1, 9]?
The value was “approximately 63%”.

And the D27 relative expression ([1]; zas mutant rice roots, 2.5 μM zaxinone, zas mock approx. 3.25)?
Its D27 relative expression is “approximately 1.2”.

What about the “decrease of D27 relative expression vs mock” value [1, 10] of the same molecule?
The value was ~77%.

And the D27 relative expression ([1]; zas mutant rice roots, 5.0 μM zaxinone, zas mock approx. 3.25)?
Its D27 relative expression is “approximately 0.75”.

And the “decrease of D17 relative expression vs mock” value ([2]; WT rice roots, 2.5 μM zaxinone)?
Its value is “approximately 75%”.

And the D17 relative expression [2, 7]?
The D17 relative expression was “approximately 0.25”.

What about the “decrease of D17 relative expression vs mock” value ([2]; WT rice roots, 5.0 μM zaxinone) of the same molecule?
The value was ~70%.

What about the D17 relative expression [2, 8] of the same molecule?
The D17 relative expression was “approximately 0.3”.

And the “decrease of D17 relative expression vs mock” value [2, 9]?
Its value is “approximately 60%”.

What about the D17 relative expression ([2]; zas mutant rice roots, 2.5 μM zaxinone, zas mock approx. 2.5) of the same molecule?
The D17 relative expression was “approximately 1.0”.

What about the “decrease of D17 relative expression vs mock” value [2, 10] of the same molecule?
The value was ~68%.

And the D17 relative expression ([2]; zas mutant rice roots, 5.0 μM zaxinone, zas mock approx. 2.5)?
Its D17 relative expression is “approximately 0.8”.

What about the “decrease of MAX1-Os900 relative expression vs mock” value ([3]; WT rice roots, 2.5 μM zaxinone) of the same molecule?
Its value is “approximately 75%”.

What about the MAX1-Os900 relative expression [3, 7] of the same molecule?
The MAX1-Os900 relative expression was “approximately 0.25”.

What about the “decrease of MAX1-Os900 relative expression vs mock” value ([3]; WT rice roots, 5.0 μM zaxinone) of the same molecule?
The value was ~60%.

And the MAX1-Os900 relative expression [3, 8]?
Its MAX1-Os900 relative expression is “approximately 0.4”.

What about the “decrease of MAX1-Os900 relative expression vs mock” value [3, 9] of the same molecule?
The value was “approximately 43%”.

What about the MAX1-Os900 relative expression ([3]; zas mutant rice roots, 2.5 μM zaxinone, zas mock approx. 2.1) of the same molecule?
Its MAX1-Os900 relative expression is “approximately 1.2”.

What about the “decrease of MAX1-Os900 relative expression vs mock” value [3, 10] of the same molecule?
The value was ~57%.

And the MAX1-Os900 relative expression ([3]; zas mutant rice roots, 5.0 μM zaxinone, zas mock approx. 2.1)?
The MAX1-Os900 relative expression was “approximately 0.9”.

And the root growth ([4]; wild type plants)?
Its root growth is “increase in root growth”.

And the crown root length ([4]; zas mutant, three weeks, untreated 7-9 cm)?
The crown root length was 10-11 cm.

And the root biomass ([4]; zas mutant, three weeks, untreated 12-22 mg DW)?
Its root biomass is 28-35 mg DW.

And the crown root number ([4]; zas mutant, three weeks, untreated 20-23)?
The crown root number was 27-32.

What about the “growth of roots in SL deficient mutants” value ([5]; SL biosynthesis and perception mutants) of the same molecule?
The value was “did not promote the growth of roots”.

What about the “root growth (root length and root biomass)” value ([5]; Shiokari wild-type and d17, d10, d3 seedlings, hydroponic, 2.5 μM zaxinone) of the same molecule?
The value was “increasing the root growth for all of the seedlings”.

What about the AM colonization capacity ([6]; 5 μM zaxinone) of the same molecule?
Its AM colonization capacity is “did not improve”.

What about the “growth vs Mock treatment” value ([6]; WT mycorrhizal plants, 5 μM zaxinone twice a week, five weeks) of the same molecule?
The value was “did not significantly differ”.

What about the “crown root number, root biomass, shoot length and shoot biomass” value ([6]; zas mutant mycorrhizal plants, 5 μM zaxinone twice a week, five weeks) of the same molecule?
The value was “significant increase”.
